Results: patent US10604554B2, “Double-acylated GLP-1 derivatives” (Novo Nordisk A/S, priority 2012, dated 2020)
Where two headings read alike, the source gives them in different places. Numbered stars: 1 amine (or outer) side, 2 acyl side, 3 side chain; on linkers, the order of the positions; unused ones are H or OH. Square brackets hold non-standard residues; d marks the D form. Side chains are listed from the residue outwards. Peptide text beside a SMILES is read from it. * marks the point of attachment. C18 diacid = O=C(O)CCCCCCCCCCCCCCCCC(=O)*; γGlu = O=C(O)[C@H](CCC(=O)[*:2])N[*:1]; εLys = N[C@@H](CCCCN[*:1])C(=O)[*:2]; AEEA = NCCOCCOCC(=O)O; Aib = CC(C)(N)C(=O)O

Columns and labels:
[1] = target: T1, human GLP-1 receptor (Homo sapiens, UniProt P43220); assay: GLP-1 receptor binding (SPA, displacement of 125I-GLP-1)
T1 construct: expressed in transfected cells; host or cells: BHK cells, clone FCW467-12A/KZ10-1 (parent line BHKTS13), further transfected with CRE luciferase
T1 sequence (P43220 24-463): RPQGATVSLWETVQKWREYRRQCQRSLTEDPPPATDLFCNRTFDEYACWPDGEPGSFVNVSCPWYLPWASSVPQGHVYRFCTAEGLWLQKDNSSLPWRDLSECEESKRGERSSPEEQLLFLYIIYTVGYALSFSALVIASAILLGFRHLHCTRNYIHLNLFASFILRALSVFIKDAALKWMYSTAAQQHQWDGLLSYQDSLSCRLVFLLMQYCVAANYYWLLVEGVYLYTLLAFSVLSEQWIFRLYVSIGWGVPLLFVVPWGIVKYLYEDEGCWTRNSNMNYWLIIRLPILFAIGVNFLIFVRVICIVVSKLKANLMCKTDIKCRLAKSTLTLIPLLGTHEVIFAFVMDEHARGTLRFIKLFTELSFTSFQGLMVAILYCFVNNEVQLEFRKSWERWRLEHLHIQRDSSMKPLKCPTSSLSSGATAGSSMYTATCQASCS
In short: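 Membranes from a stably transfected hamster cell line, 5-10 ug protein/sample, with WGA SPA beads and [125I]-GLP-1(7-36)NH2 at 0.06 nM final. Incubated 120 min at 30 °C with shaking, then counted.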

[2] = Pharmacokinetic (PK) study in rat; conditions: male, Sprague Dawley, in vivo, iv, 6 nmol/kg
[3] = Receptor binding affinity IC50 (high HSA), 2.0% HSA (high albumin)
[4] = 0.001% HSA (low albumin), read-out: Receptor binding affinity IC50 (low HSA)

| IC50 [1, 4] [nM] | SMILES | IC50 [1, 3] [nM] | further results |
| --- | --- | --- | --- |
|  | CC[C@H](C)[C@H](NC(=O)[C@H](Cc1ccccc1)NC(=O)[C@H](CCC(=O)O)NC(=O)[C@H](CCCCNC(=O)[C@@H](N)CCCCNC(=O)[C@@H](N)CCCCNC(=O)CC[C@H](NC(=O)CCCCCCCCCOc1ccc(C(=O)O)cc1)C(=O)O)NC(=O)[C@H](C)NC(=O)[C@H](C)NC(=O)[C@H](CCC(N)=O)NC(=O)CNC(=O)[C@H](CCC(=O)O)NC(=O)[C@H](CC(C)C)NC(=O)[C@H](Cc1ccc(O)cc1)NC(=O)[C@H](CO)NC(=O)[C@H](CO)NC(=O)[C@@H](NC(=O)[C@H](CC(=O)O)NC(=O)[C@H](CO)NC(=O)[C@@H](NC(=O)[C@H](Cc1ccccc1)NC(=O)[C@@H](NC(=O)CNC(=O)[C@H](CCC(=O)O)NC(=O)C(C)(C)NC(=O)[C@@H](N)Cc1c[nH]cn1)[C@@H](C)O)[C@@H](C)O)C(C)C)C(=O)N[C@@H](C)C(=O)N[C@@H](Cc1c[nH]c2ccccc12)C(=O)N[C@@H](CC(C)C)C(=O)N[C@H](C(=O)N[C@@H](CCCNC(=N)N)C(=O)NCC(=O)N[C@@H](CCCNC(=N)N)C(=O)N[C@@H](CCCCNC(=O)[C@@H](N)CCCCNC(=O)[C@@H](N)CCCCNC(=O)CC[C@H](NC(=O)CCCCCCCCCOc1ccc(C(=O)O)cc1)C(=O)O)C(=O)O)C(C)C [Example 1, N^ε26-[(2S)-2-amino-6-[[(2S)-2-amino-6-[[(4S)-4-carboxy-4-[10-(4-carboxyphenoxy)decanoylamino]butanoyl]amino]hexanoyl]amino]hexanoyl], N^ε37-[(2S)-2-amino-6-[[(2S)-2-amino-6-[[(4S)-4-carboxy-4-[10-(4-carboxyphenoxy)decanoylamino]butanoyl]amino]hexanoyl]amino]hexanoyl]-[Aib^8, Arg^34,Lys^37]-GLP-1-(7-37)-peptide] | 13 | half-life [2]: 840 min |
| 0.24 | CC[C@H](C)[C@H](NC(=O)[C@H](Cc1ccccc1)NC(=O)[C@H](CCC(=O)O)NC(=O)[C@H](CCCCNC(=O)[C@@H](N)CCCCNC(=O)[C@@H](N)CCCCNC(=O)CC[C@H](NC(=O)CCCCCCCCCCCCC(=O)O)C(=O)O)NC(=O)[C@H](C)NC(=O)[C@H](C)NC(=O)[C@H](CCC(N)=O)NC(=O)CNC(=O)[C@H](CCC(=O)O)NC(=O)[C@H](CC(C)C)NC(=O)[C@H](Cc1ccc(O)cc1)NC(=O)[C@H](CO)NC(=O)[C@H](CO)NC(=O)[C@@H](NC(=O)[C@H](CC(=O)O)NC(=O)[C@H](CO)NC(=O)[C@@H](NC(=O)[C@H](Cc1ccccc1)NC(=O)[C@@H](NC(=O)CNC(=O)[C@H](CCC(=O)O)NC(=O)C(C)(C)NC(=O)[C@@H](N)Cc1c[nH]cn1)[C@@H](C)O)[C@@H](C)O)C(C)C)C(=O)N[C@@H](C)C(=O)N[C@@H](Cc1c[nH]c2ccccc12)C(=O)N[C@@H](CC(C)C)C(=O)N[C@H](C(=O)N[C@@H](CCCNC(=N)N)C(=O)NCC(=O)N[C@@H](CCCNC(=N)N)C(=O)N[C@@H](CCCCNC(=O)[C@@H](N)CCCCNC(=O)[C@@H](N)CCCCNC(=O)CC[C@H](NC(=O)CCCCCCCCCCCCC(=O)O)C(=O)O)C(=O)O)C(C)C [Example 2, N^ε26-[(2S)-2-amino-6-[[(2S)-2-amino-6-[[(4S)-4-carboxy-4-(13-carboxytridecanoylamino)butanoyl]amino]hexanoyl]amino]hexanoyl], N^ε37-[(2S)-2-amino-6-[[(2S)-2-amino-6-[[(4S)-4-carboxy-4-(13-carboxytridecanoylamino)butanoyl]amino]hexanoyl]amino]hexanoyl]-[Aib^8,Arg^34,Lys^37]-GLP-1-(7-37)-peptide] |  | IC50 ([1]; 2.0% HSA (high albumin), read-out: Receptor binding affinity IC50 (high HSA)): 29 nM |
|  | CC[C@H](C)[C@H](NC(=O)[C@H](Cc1ccccc1)NC(=O)[C@H](CCC(=O)O)NC(=O)[C@H](CCCCNC(=O)[C@@H](N)CCCCNC(=O)COCCOCCNC(=O)COCCOCCNC(=O)CC[C@H](NC(=O)CCCCCCCCCOc1ccc(C(=O)O)cc1)C(=O)O)NC(=O)[C@H](C)NC(=O)[C@H](C)NC(=O)[C@H](CCC(N)=O)NC(=O)CNC(=O)[C@H](CCC(=O)O)NC(=O)[C@H](CC(C)C)NC(=O)[C@H](Cc1ccc(O)cc1)NC(=O)[C@H](CO)NC(=O)[C@H](CO)NC(=O)[C@@H](NC(=O)[C@H](CC(=O)O)NC(=O)[C@H](CO)NC(=O)[C@@H](NC(=O)[C@H](Cc1ccccc1)NC(=O)[C@@H](NC(=O)CNC(=O)[C@H](CCC(=O)O)NC(=O)C(C)(C)NC(=O)[C@@H](N)Cc1c[nH]cn1)[C@@H](C)O)[C@@H](C)O)C(C)C)C(=O)N[C@@H](C)C(=O)N[C@@H](Cc1c[nH]c2ccccc12)C(=O)N[C@@H](CC(C)C)C(=O)N[C@H](C(=O)N[C@@H](CCCNC(=N)N)C(=O)NCC(=O)N[C@@H](CCCNC(=N)N)C(=O)N[C@@H](CCCCNC(=O)[C@@H](N)CCCCNC(=O)COCCOCCNC(=O)COCCOCCNC(=O)CC[C@H](NC(=O)CCCCCCCCCOc1ccc(C(=O)O)cc1)C(=O)O)C(=O)O)C(C)C [Example 5] | 64 | IC50 ([1]; Receptor binding affinity IC50 (low HSA), 0.001% HSA (low albumin)): 1.03 nM |
| 1.67 | CC[C@H](C)[C@H](NC(=O)[C@H](Cc1ccccc1)NC(=O)[C@H](CCC(=O)O)NC(=O)[C@H](CCCCNC(=O)[C@@H](N)CCCCNC(=O)COCCOCCNC(=O)COCCOCCNC(=O)CC[C@H](NC(=O)CCCCCCCCCCCCCCCCC(=O)O)C(=O)O)NC(=O)[C@H](C)NC(=O)[C@H](C)NC(=O)[C@H](CCC(N)=O)NC(=O)[C@H](CCC(=O)O)NC(=O)[C@H](CCC(=O)O)NC(=O)[C@H](CC(C)C)NC(=O)[C@H](Cc1ccc(O)cc1)NC(=O)[C@H](CO)NC(=O)[C@H](CO)NC(=O)[C@@H](NC(=O)[C@H](CC(=O)O)NC(=O)[C@H](CO)NC(=O)[C@@H](NC(=O)[C@H](Cc1ccccc1)NC(=O)[C@@H](NC(=O)CNC(=O)[C@H](CCC(=O)O)NC(=O)C(C)(C)NC(=O)[C@@H](N)Cc1c[nH]cn1)[C@@H](C)O)[C@@H](C)O)C(C)C)C(=O)N[C@@H](C)C(=O)N[C@@H](Cc1c[nH]c2ccccc12)C(=O)N[C@@H](CC(C)C)C(=O)N[C@H](C(=O)N[C@@H](CCC(N)=O)C(=O)NCC(=O)N[C@@H](CCCNC(=N)N)C(=O)N[C@@H](CCCCNC(=O)[C@@H](N)CCCCNC(=O)COCCOCCNC(=O)COCCOCCNC(=O)CC[C@H](NC(=O)CCCCCCCCCCCCCCCCC(=O)O)C(=O)O)C(=O)O)C(C)C [Example 28, N^ε26-[(2S)-2-amino-6-[[2-[2-[2-[[2-[2-[2-[[(4S)-4-carboxy-4-(17-carboxyheptadecanoylamino)butanoyl]amino]ethoxy]ethoxy]acetyl]amino]ethoxy]ethoxy]acetyl]amino]hexanoyl], N^ε37-[(2S)-2-amino-6-[[2-[2-[2-[[2-[2-[2-[[(4S)-4-carboxy-4-(17-carboxyheptadecanoylamino)butanoyl]amino]ethoxy]ethoxy]acetyl]amino]ethoxy]ethoxy]acetyl]amino]hexanoyl]-[Aib^8,Glu^22,Gln^34, Lys^37]-GLP-1-(7-37)-peptide] (H-H[Aib]EGTFTSDVSSYLEEQAAK([εLys-AEEA-AEEA-γGlu-C18 diacid])EFIAWLVQGRK([εLys-AEEA-AEEA-γGlu-C18 diacid])-OH; N-terminus and C-terminus assumed) |  | IC50 (high HSA) ([1]; Receptor binding affinity IC50 (high HSA), 2.0% HSA (high albumin), heading: Receptor binding affinity IC50): ≥ 1000 nM |
